For test [1], the system named is patients with ALS. As to the kind of experiment: BENEFIT-ALS clinical trial: handgrip fatigue at 60% of target in the weaker hand. The format is in vivo, human. As for the experimental part:
(§1) BENEFIT-ALS was a multi-national, randomized, stratified, double-blind, placebo-controlled, parallel-group study of tirasemtiv in patients with ALS. The study consisted of a screening period, an open-label/lead-in period, and a double-blind treatment period. Following screening, eligible patients received open-label tirasemtiv, 125 mg BID, for 7 days. Patients who tolerated the 7-day lead-in period were randomized in a 1:1 ratio to tirasemtiv or placebo. Over the first 3 weeks of double-blind treatment, patients randomized to tirasemtiv had their TDD up-titrated as follows: 250 mg for 7 days, then 375 mg for 7 days, then 500 mg for 7 days. […] However, in such cases, dose escalation was re-attempted at least one additional time. The highest tolerable tirasemtiv dose for each individual patient was the dose that patient received for the remaining 9 weeks (i.e., the maximum tolerated dose [MTD] phase) of the study. Patients randomized to placebo underwent a corresponding dummy dose titration.
(§2) Randomization was stratified by riluzole use. […] Clinical assessments occurred every 4 weeks during double-blind treatment; patients also returned for follow-up evaluations at 1 and 4 weeks after their final dose of double-blind study medication (FIG. 1).
(§3) The secondary objectives included assessments of the effect of tirasemtiv versus placebo on measures of respiratory function (Maximum Voluntary Ventilation (MVV), Sniff Nasal Inspiratory Pressure (SNIP), SVC) and skeletal muscle function including handgrip fatigue and muscle-strength mega-score (i.e., the average z-score for muscle strength measurements across the following tested bilateral muscle groups: elbow flexion, wrist extension, knee extension, ankle dorsiflexion, and handgrip)). Secondary endpoints included the changes from baseline in each of the above mentioned measures (MVV, SNIP, SVC, and muscle-strength mega-score) for the Modified FAS, and the slope of each of the measures from baseline to Week 12 for the Modified FAS.
(§4) Eligible patients were males and females, 18 years of age and older, with a diagnosis of familial or sporadic ALS and meeting the World Federation of Neurology El Escorial criteria of definite ALS, probable ALS, laboratory-supported probable ALS, or possible ALS. Patients were to have an upright SVC>50% of predicted for age, height, and sex, a diminished, but measurable, maximum voluntary grip strength in at least one hand (i.e., between 10-50 pounds for females and 10-70 pounds for males), and at least 4 of the 12 ALSFRS-R questions were to have been scored as a 2 or 3. Patients were to be able to swallow tablets without crushing, and in the opinion of the investigator, were expected to do so for the duration of the study. If the patient needed a caregiver, the caregiver was to be able to observe the patient's status. Clinical laboratory results were to be either within their respective normal ranges or if outside the normal range, deemed not clinically significant by the investigator. […] Patients not taking riluzole prior to study entry were not permitted to take riluzole at any dose during the course of the study.
(§5) Safety data presented were based on the safety analysis set, defined as all patients who received at least 1 dose of double-blind study drug. Of the 605 randomized patients, 596 (295 placebo, 301 tirasemtiv) received at least 1 dose of double-blind study drug and were included in the safety analysis set. Data for the primary and secondary efficacy endpoints were analyzed with the Modified FAS. This analysis set included all patients who received at least 1 dose of double-blind study drug and had at least 1 efficacy assessment during the double-blind treatment period, and excluded 156 patients who were randomized in blocks containing patients affected by a study drug assignment error in which 58 patients randomized to and treated with double-blind tirasemtiv were dispensed double-blind placebo instead. […]

A further test relates to muscle. The following applies: other model systems; cited from earlier work.
For a further test, the system named is cardiac muscle troponin. The settings on record: cited from earlier work.
Test [2] has as its system patients with ALS. As to the kind of experiment: BENEFIT-ALS clinical trial: Maximum Voluntary Ventilation (MVV). The format is in vivo, human. The procedure: as §1, §2, §3, §4, §5
For test [3], the system named is fast skeletal muscle troponin complex. The settings on record: cited from earlier work.
In test [4] the test system is muscle contraction / grip strength. The following applies: cited from earlier work.

As for `C#Cc1cnc2nc(O)n(C(CC)CC)c2n1` [Tirasemtiv, 6-ethynyl-1-(pentan-3-yl)-1H-imidazo[4,5-b]pyrazin-2(3H)one], the “Handgrip fatigue slope from baseline to Week 12” value with patients with ALS [1] (Modified FAS N=178) came out at 0.0458. Besides, the “Handgrip fatigue at 60% of target in the weaker hand, change from baseline (LS mean)” value with patients with ALS [1] (Week 4, Modified FAS N=178) is -1.77 s; in the test on patients with ALS [1] (Week 8, Modified FAS N=178), 4.60 s; in the test on patients with ALS [1] (Week 12, Modified FAS N=178), -0.57 s. Moreover, the “Handgrip fatigue versus placebo, in words” value in the test with patients with ALS [1] (human, in vivo) is reported as “no statistically significant difference between treatment groups”. The “Handgrip fatigue difference in slope (tirasemtiv vs placebo)” value with patients with ALS [1] (p=0.6372) amounted to 0.0332. Also, the Fatigability of muscle entry in the test on muscle is “decreased fatigability of muscle”. Also, in the test on muscle, the Muscle power result was “increased muscle power”. The “Effect on cardiac muscle troponin” value in the test with cardiac muscle troponin is reported as “no effect”. Further, the “MVV slope from baseline to Week 12” value in the test with patients with ALS [2] (Modified FAS N=178) was −0.0567. The “MVV change from baseline (LS mean)” value in the test with patients with ALS [2] (Week 4, Modified FAS N=178) was -2.89 L/min; in the test with patients with ALS [2] (Week 8, Modified FAS N=178), -2.14 L/min; in the test with patients with ALS [2] (Week 12, Modified FAS N=178), -5.45 L/min. For the same compound, in the test on patients with ALS [2] (human, in vivo), the “MVV versus placebo, in words” value is given as “no statistically significant difference between treatment groups”. For the same compound, the “MVV difference in slope (tirasemtiv vs placebo)” value in the test on patients with ALS [2] (p=0.8799) is reported as 0.0044. Also, in test [3], the “Activity on fast skeletal muscle troponin complex” value was “highly selective activator”. Besides, in test [3], the “Rate of calcium release from fast skeletal TnC” value is “slows the rate of calcium release”. Further, in test [4] (preclinical models of limited neuromuscular input), the Grip strength result is “increased grip strength”. The “Force of muscle contraction” value in test [4] (submaximal nerve stimulation frequencies) is given as “increased the force of muscle contraction”.

The values above are taken from patent US20170042890A1, “METHODS OF REDUCING DECLINE IN VITAL CAPACITY” (Cytokinetics, Inc., priority 2014, published 2017).
